# Assay: Human HepG2 cell viability assay in 384 well format
# Type: toxicity, cell-based
# Set-up: dose 125 nL, time 70.5 hour; cytotoxicity at 70.5 h: concentration not given beside the values
# Conditions: HepG2 cells, read-out: Inhibition
row,Structure (SMILES),cytotoxicity at 70.5 h
1,O=C(c1ccc(C(F)(F)F)nc1)N1CCCC(n2cncn2)C1 (configuration not stated),-1.03%
2,c1cncc(O[C@H]2COCCN(C3CCC3)C2)c1,1.49%
3,CCN(CC(=O)NC(C)C)S(=O)(=O)N1CCCCC1C (configuration not stated),-3.14%
4,CCN(CC)Cc1ccc(C(=O)NC2CCc3cc(F)ccc32)o1 (configuration not stated),-19%
5,CCNC(=O)N1CCN(C(=O)c2cc(Cl)cc3cccnc23)CC1,-9.51%
6,CCN1C(=O)C2(CCOCC2)c2cc(NC(=O)c3cnoc3C)ccc21,-6.08%
7,CC1CCN(C(=O)c2ccnc(-n3cncn3)c2)c2ccccc21 (configuration not stated),13.2%
8,O=S(=O)(CCCN1CCCC1Cn1cccn1)c1ccccc1 (configuration not stated),-11.1%
9,CCOC(=O)N1CCN(C(=O)Cc2c(C)nc(C)[nH]c2=O)CC1,13.6%
10,Cc1ccc(C(=O)NS(C)(=O)=O)cc1-n1cccc1,-6.32%
11,COc1ccc(CN(C)C(=O)CN2CC(n3cccn3)C2)cc1F,-0.231%
12,CNS(=O)(=O)c1ccccc1N1CCN(C(C)C(N)=O)CC1 (configuration not stated),-3.93%
13,CC(=O)N1CCCC1c1cc(N2CCN(C3CCCC3)CC2)cc(C)n1 (configuration not stated),-7.01%
14,O=C(c1ccc(-n2cc(Br)cn2)cc1)N1CCN(c2cnccn2)CC1,-10%
15,CN(C)c1cnnc(N2CCN(C(=O)CCC3CCCCC3)CC2)c1,-7.83%
16,Cc1ccsc1C(=O)N1CC(C(=O)N2CCOCC2)C2(CCOCC2)C1 (configuration not stated),24.8%
17,CC(c1cccnc1)N1CCN(CCO)CC1 (configuration not stated),7.45%
18,Cc1ccccc1C(CC(=O)NCC(N)=O)c1ccccc1 (configuration not stated),-5.12%
19,Cc1cc(C)nc(N2CCC(CNC(=O)c3cnccn3)CC2)n1,3.07%
20,O=C1NCCCCC1NC(=O)N1CCCc2cc(F)ccc21 (configuration not stated),-4.74%
21,CC(C#N)CNC(=O)Nc1ccc(-c2ccc[nH]2)cc1 (configuration not stated),-0.22%
22,Cc1ccc(CNC(=O)CN2CCN(CC(O)C3CC3)CC2)cc1 (configuration not stated),-8.6%
23,CN(C)CCn1c2c(ccc1=O)CCN(C(=O)c1cccs1)CC2,-5.63%

row,Structure (SMILES),cytotoxicity at 70.5 h
1,CC(=O)NCCc1cc(N2CCN(C(C)=O)CC2)nc(C2CC2)n1,-5.29%
2,CCC(C)N1CCC2(CC1)CN(c1cncnc1)C(=O)CO2 (configuration not stated),-15.3%
3,CC(C)CCn1nc(CNc2ccc(Br)cc2)nc1O,-17.8%
4,Cn1nc(C#N)c2c1CN(C(=O)c1cccnc1)CCC2,29.4%
5,O=C(NCc1cccnc1)Nc1cc(C(F)(F)F)c[nH]c1=O,-9.57%
6,N#Cc1cccc(CNCCC(=O)N2CCc3sccc3C2)c1,-3.34%
7,Cn1cc(C2=CCN(CCC(=O)NCc3ccc(Cl)cc3)CC2)cn1,-2.89%
8,Cc1nn(C2CCS(=O)(=O)C2)c(O)c1Cc1cccc(Cl)c1 (configuration not stated),-17.9%
9,CC(C)N(C)Cc1ncn2c1CN(C(=O)C1CCCO1)CCC2 (configuration not stated),-0.921%
10,COc1ccc(C(C)NCc2ccc(OC)c(OC)c2OC)cc1F (configuration not stated),31.6%
11,COC(=O)c1sccc1S(=O)(=O)N1CCc2c(ncnc2N(C)C)C1,-1.11%
12,CN(CC(=O)NC(C)(C)C)C(=O)C1CC(c2cccc(F)c2)=NO1 (configuration not stated),4.91%
13,CS(=O)(=O)CC(=O)N1C[C@@H]2CN(Cc3ccoc3)CCO[C@@H]2C1,-12%
14,Cc1nc(N2CCN(C(=O)C3CC3)CC2)c2c(n1)c(C)nn2C,0.516%
15,c1cnc(NCc2noc3c2CN(CCN2CCCC2)CC3)nc1,-7.61%
16,Cc1nccn1-c1ccc(C(C)NCCc2ccccn2)cc1 (configuration not stated),0.00833%
17,CC1=C(c2ccc(C(C)C)cc2)S(=O)(=O)N=C1N1CCc2ccccc21,33.6%
18,CCOC(=O)c1ccc(NC(=O)c2cc3c([nH]c2=O)CCCC3)cc1,-14.4%
19,Cc1cc(C)n(C2CN(c3nc(-c4ccncc4)nc4c3CCC4)C2)n1,-8.99%
20,Cc1cc(CNc2ccc(CC(=O)N(C)c3ccccc3)cc2)no1,0.0494%
21,Cc1nnc(C(C)Nc2cccc(COCCc3ccccc3)c2)o1 (configuration not stated),-8.73%
22,O=C1CN(C(=O)c2ccc(F)cc2)CC(O)CN1Cc1cccs1 (configuration not stated),1.6%
23,Cc1nc(N2CCC(C(O)c3nccn3C)CC2)c2sccc2n1 (configuration not stated),35.8%

row,Structure (SMILES),cytotoxicity at 70.5 h
1,O=C(O)[C@@H]1CN(C(=O)CN2Cc3ccccc3C2)C[C@H]1c1ccncc1,-1.71%
2,Cc1noc(CC2CCN(C(=O)C(c3ccccc3C)N(C)C)CC2)n1 (configuration not stated),-12.1%
3,OC(CN(Cc1ccccc1)Cc1ccncc1)c1ccco1 (configuration not stated),26%
4,Cc1ccc(-n2nnc(C(=O)NC(C)C)c2C2CC2)cc1,-4.09%
5,Cc1nc(CN2CCO[C@@H]3CN(C(=O)CC4CC4)CC[C@@H]3C2)cs1,-13.3%
6,COCCOCCNC(=O)c1cccc(Cn2nc(C)cc2C)c1,34.2%
7,Cc1cc(C(=O)N2CCCC2c2nnc3n2CCCCC3)on1 (configuration not stated),-2.64%
8,CC1CCCCN1C(=O)c1coc(COc2cccc3cnccc23)n1 (configuration not stated),-6.78%
9,Cn1ccnc1CN(CCO)C(=O)c1nc2ccccc2s1,2.62%
10,COc1cccc(NC(=O)NC(C)c2ccc3c(c2)CC(=O)N3)c1 (configuration not stated),-3.09%
11,CN(C)C(=O)CC1CC2(CCN(CC3CC3)CC2)c2cc(F)ccc21 (configuration not stated),35.7%
12,CC(C)n1c(=O)c2ccccc2n(CCN(C)C)c1=O,-8.7%
13,Cc1nc(C)n(CC2CCCN2Cc2nc(-c3ccccn3)no2)n1 (configuration not stated),-7.25%
14,CC(C)c1cc(C(=O)N2C[C@H]3CC[C@@H]2CN(Cc2ccccn2)C3)no1,-7.13%
15,CCN(CC)CCNc1c(-c2ccccc2)c(=O)c1=O,-0.107%
16,CN(C)CCN1CCC2(CC1)CN(c1cccnc1)C(=O)CO2,-13.5%
17,CSCC[C@@H](CO)NC(=O)c1sc(-c2ccc(Cl)cc2)nc1C,-11.9%
18,Cc1nc(CC(=O)N2CCCCC2Cn2cccn2)cs1 (configuration not stated),25.2%
19,Cc1nc(CN2CCCC(NCCOCC(F)(F)F)C2)no1 (configuration not stated),24.6%
20,c1ccc(CN2CC[C@H]3CO[C@H](CNc4ncccn4)[C@H]3C2)nc1,-0.901%
21,O=C(c1ccoc1)N1CCC2(CCC(=O)N2Cc2ccncc2)CC1,5.56%
22,O=C(CCc1nccs1)N1CCN(c2ccc(Br)cn2)CC1,22.4%
23,Cc1cc(C2CCCN(Cc3nnc(Cc4ccccc4)o3)C2)n[nH]1 (configuration not stated),-9.79%

row,Structure (SMILES),cytotoxicity at 70.5 h
1,Cc1ccoc1C(=O)NC1CCN(Cc2ccccc2C#N)CC1,-1.98%
2,CN1CCOC(C)(C(=O)N2CCSCC2)C1 (configuration not stated),-4.76%
3,COc1ccc2c(ccn2CCC(=O)NCc2ccc(C(=O)O)cc2)c1,-13.5%
4,Cc1cn([C@H]2CCNC[C@]2(C)O)c(=O)[nH]c1=O,4.8%
5,Fc1cccc(CNc2cncc(-n3cccn3)n2)c1,-6.71%
6,Cc1cc(C)c2ncn(CC(C)(C)CO)c(=O)c2c1,-6.8%
7,O=C(Cn1cc(C(=O)O)ccc1=O)NCc1ccc(F)cc1Cl,5.89%
8,CCCS(=O)(=O)CC(=O)Nc1ccsc1,7.39%
9,CSCC(=O)Nc1ncc(I)cc1C,11.6%
10,Cc1nc2c(c(NCC(O)c3ccccc3Cl)n1)CCNCC2 (configuration not stated),-11.8%
11,Cc1ccc2nc(CN(Cc3ccc(C)o3)C(C)C)cc(=O)n2c1,-11.5%
12,O=C(C1CCOCC1)N1C[C@@H]2OCCN(CCN3CCCC3)[C@@H]2C1,-3.55%
13,CO[C@H]1CN(C(=O)c2cc3ccccc3[nH]2)CC[C@H]1N,18.2%
14,CC(C(=O)N1CCc2sccc2C1)N1CCC(N2CCCC2)CC1 (configuration not stated),0.91%
15,O=C(NCC1CCC1)c1ccc(-n2ccnc2)nn1,5.15%
16,CC(=O)Nc1nc(C(=O)Nc2ccc(N3CCCCC3)nc2)cs1,13.7%
17,COc1ccc(C2=NOC(CC#N)C2)cc1 (configuration not stated),-1.51%
18,Cc1ccccc1N1CCN(C(=O)c2cnn(C(C)C)c2)C(C)C1 (configuration not stated),-4.79%
19,Cc1cc(C)n(C2CN(Cc3noc(-c4ccccc4)n3)C2)n1,-4.76%
20,Cc1nccn1CC1CCCN1S(=O)(=O)Cc1ccon1 (configuration not stated),4.51%
21,Cc1cc(CN2C[C@H]3CCC[C@@]3(COCc3csc(C)n3)C2)no1,-9.15%
22,O=C(NCc1cccnc1)C1=NN(c2ccccc2)C(=O)CN1,-13.9%
23,O=C(CC1CC1)N1C[C@@H]2CN(c3ccccc3)C(=O)[C@@H]2C1,-8.68%

row,Structure (SMILES),cytotoxicity at 70.5 h
1,CNC(=O)[C@H]1C[C@H]2OCC[C@H]2N(Cc2ccc(C)o2)C1,3.85%
2,Cc1c(CN2C[C@H](O)[C@@H](N3CCOCC3)C2)[nH]c2ccc(F)cc12,12.2%
3,O=C(c1cc(=O)c(OCc2ccccc2F)co1)N1CCSCC1,-3.38%
4,Cc1nc(N(C)C)nc(-c2cccc(-c3ccn(CCCF)n3)c2)c1C,-10.9%
5,NC(=O)NCC(=O)N1CCCC(c2nccn2Cc2ccncc2)C1 (configuration not stated),-1.01%
6,Cc1cc(C)c(C(=O)NC2CCCc3nc(N(C)C)ncc32)cc1C (configuration not stated),23.6%
7,CN(C(=O)Cn1nc(-c2ccc(F)cc2)oc1=O)c1ccccc1,-11.5%
8,CCN(C)C(=O)c1ccc(N(C)Cc2cc(-c3cccnc3)no2)nc1,0.809%
9,O=c1ccc2c([nH]1)CCN(S(=O)(=O)c1ccc3c(c1)OCCO3)C2,1.39%
10,COc1c(C)cnc(CN(C)C(=O)c2ccccc2O)c1C,0.1%
11,Cc1ccc(OCCC(=O)N2CCN(c3cnccn3)CC2)cc1C,-4.94%
12,CCN(CC)CCCNCC1CCOC(C)(C)C1 (configuration not stated),-3.64%
13,CCCNC(=O)c1ncn2c1CN(CC(C)C)S(=O)(=O)c1ccccc1-2,13.4%
14,Cc1cnn(CC2CCCCN2CCCS(C)(=O)=O)c1 (configuration not stated),-2.88%
15,COc1ncccc1C(=O)Nc1ccccc1-c1ccc(=O)n(C)n1,3.64%
16,CC(C)c1noc(CN(C)C(=O)c2ccccc2-c2nc[nH]n2)n1,6.97%
17,CCc1nc(CN(C)C(=O)NC(C)c2cccc(NC(C)=O)c2)cs1 (configuration not stated),12.9%
18,Cc1ccsc1CNC(=O)c1ccc2c(c1)CCC(=O)N2,16.1%
19,CCc1n[nH]c(C2CN(C(=O)c3csnn3)CCO2)n1 (configuration not stated),-18.6%
20,Cc1nc(CN(C)c2nc3c(cnn3C(C)(C)C)c(=O)[nH]2)cs1,8.98%

# From ChEMBL document CHEMBL3507680, “University of Dundee, Gates Library screen for HepG2 cell viability”
